# Earlier results in US20050137807A1, “Method of visualization of the ADME properties of chemical substances” (priority 2003, published 2005).
# What was measured:
# [1] = cited from earlier work
# [2] = cited from earlier work; remark: listed apart in the source
# [3] = in vivo; cited from earlier work
Molecule,logP [1],pKa [2],passive oral absorption [3]
CC(Oc1ccc(Oc2ccc(Cl)cc2Cl)cc1)C(=O)O (centres unmarked) [diclofop],4.5,3.43,–
CN(C)C(=O)Nc1ccc(Cl)c(Cl)c1 [diuron],2.85,13.8,–
COC(=O)c1ccc(C(F)(F)F)nc1S(=O)(=O)NC(=O)Nc1nc(OC)cc(OC)n1 [flupyrsulfuron-methyl-sodium],1.3,4.9,–
COC(=O)c1c(Cl)nn(C)c1S(=O)(=O)NC(=O)Nc1nc(OC)cc(OC)n1 [halosulfuron-methyl],2.9,3.44,–
COc1nc(C)nc(=NC(=O)NS(=O)(=O)c2ccccc2C(=O)O)[nH]1 [metsulfuron],2,3.3,–
CON(C)C(=O)Nc1ccc(Cl)cc1 [monolinuron],2.2,13.8,–
COc1cc(OC)nc(NC(=O)NS(=O)(=O)c2ncccc2C(=O)N(C)C)n1 [nicosulfuron],0.5,4.6,–
O=C(Nc1nc(OC(F)F)cc(OC(F)F)n1)NS(=O)(=O)c1ccccc1C(=O)O [primisulfuron],0.06,3.47,–
O=C(O)c1c(Cl)ccc2cc(Cl)cnc12 [quinclorac],3.6,4.34,–
COC(=O)c1ccccc1S(=O)(=O)NC(=O)Nc1nc(C)cc(C)n1 [sulfometuron-methyl],1.4,5.2,–
Cc1cc(C)nc(NC(=O)NS(=O)(=O)c2ccccc2C(=O)O)n1 [sulfometuron],−0.51,5.2,–
COc1nc(C)nc(NC(=O)NS(=O)(=O)c2ccsc2C(=O)O)n1 [thifensulfuron],0.02,4,–
COc1nc(C)nc(NC(=O)NS(=O)(=O)c2ccccc2OCCCl)n1 [triasulfuron],1.6,4.64,–
COc1nc(C)nc(N(C)C(=O)NS(=O)(=O)c2ccccc2C(=O)O)n1 [tribenuron],−0.44,5,–
itraconazoles,–,–,can be passively absorbed well
